Assay results from PMC9382192, “Combined treatment with epigenetic agents enhances anti-tumor activity of MAGE-D4 peptide-specific T cells by upregulating the MAGE-D4 expression in glioma” (Frontiers in Oncology, 2022).

Tests used:
autologous T cells = conditions: T cells with peptide-pulsed autologous DCs 10:1, 72 h; versus DCs without peptide
Experimental: PBMCs were isolated from the peripheral blood samples of 8 HLA-A2^+ healthy donors, with University Ethics Review Committee-approved, written consent. The effector T lymphocytes and DCs were prepared by our published method ([31]). CD8^+ T cells were isolated from PBMCs using CD8^+ negative selection MicroBeads EasySep™ Human CD8^+ T Cell Isolation Kit (17953, stemcell) according to the manufacturers.
For T-cell stimulation, T cells were cultured with RPMI1640 complete medium containing IL-2 (20 ng/ml) mixed with peptide-pulsed autologous DCs at a ratio of 10:1 and co-cultured for 72 h. The supernatant of DCs and T cells co-cultured for 72h was used to detect IL-2 and γ-IFN. The capacity of peptide-pulsed DCs to stimulate the proliferation of autologous T cells was evaluated using a Cell Counting Kit-8 (CCK-8, Beiltime Biotec, China), as described using our published method ([31]). CCK-8 solution (20 μl/well) was added in 2 h before the end of culture. Then, the optical density (OD) was measured by microplate tester. The stimulation index (SI) is calculated according to the following formula: SI = (experiment well OD value − background OD value)/(blank control well OD value − background OD value).

IL-2 = IL-2 ELISA of DC/T-cell co-culture supernatant; type: cell-based, human; conditions: 72 h co-culture supernatant, versus negative control peptide
Experimental: Production of cytokines in the supernatants was determined using commercially available ELISA kits (Cloud-Clone Corporation, Wuhan, China) according to the protocol of the manufacturer. Approximately 50 μl of supernatant and different concentration standards were added and mixed with 100 μl of horseradish peroxidase (HRP) labeled detection antibody against a 96-well plate, respectively, except for the blank control. After incubation at 37°C for 60 min, we washed the plate five times. Add substrate A and substrate B 50 μl respectively, incubate for 15min in a 37°C incubator in dark. Then, 50 μl of stop solution was added and a 450 nm absorbance value (OD value) was measured within 15 min. The regression equation of the standard curve is calculated according to the concentration of the standard substance and the OD value, and the corresponding sample concentration is calculated on the basis of the regression equation.

peptide/HLA-A2 complex = peptide/HLA-A2 complex (Homo sapiens, UniProt P04439, D140Y/D185E/D98H/E176V/E277Q/G131W/G231S/I119V/I121R/I166T/I218V/L300P/L318F/N151K/N90K/P208A/P217A/Q86G/Q94H/R138H/R169H/T345S); assay: Peptide/HLA-A2 complex stability assay on T2 cells; type: binding; conditions: 50 μM peptide + β2 microglobulin 2.5 μg/ml, 18 h 37°C, brefeldin A 1 h, read at 0, 2, 4, 6 h, flow cytometry
Experimental: T2 cells were collected and placed in 24-well plates (1 × 10^6/ml), 1 ml in each well. Predictive peptides (50 μM) and β2 microglobulin (2.5 μg/ml) were added, respectively. […] After the incubation, T2 cells were washed twice with cold PBS to clear the unbound peptide, then brefeldin A (10 μg/m) was added and incubated for 1 h. Then, cells were washed and incubated at 37°C for 0, 2, 4, and 6 h; FITC-labeled mouse anti-human HLA-A2 monoclonal antibody was added and incubated at 4°C for 30 min under dark conditions. The MFI of cells was detected by flow cytometry after washing twice. The results are expressed as dissociation complex 50 (DC50), meaning the time required for the loss of 50% of the stabilized peptide/complex.

HLA-A2 [1] = assay: Peptide binding assay on T2 cells; design: species or system human; conditions: 50 µg/ml peptide, 37°C 18 h, FITC anti-HLA-A2 (BB7.2), flow cytometry, FI = (MFI peptide − MFI background)/MFI background
Experimental: Peptide binding affinity to HLA-A2 was assessed using T2 cells, a cell line that expresses HLA-A2 molecules but is deficient in antigen presentation. […] After incubation, the cells were washed in Phosphate buffered saline (PBS) and further incubated with FITC-conjugated anti-HLA-A2 antibody (BB7.2; BD Biosciences) at 4°C for 45 min. The cells were then washed and re-suspended with 300 µl of PBS and subjected to flow cytometer analysis (FACS Calibur, BD Biosciences). The fluorescence index (FI) was calculated as follows: FI = mean fluorescence intensity (MFI) with the given peptide − MFI without peptide/MFI without peptide.

MAGE-D4 promoter [2] = assay: Pyrosequencing of MAGE-D4 promoter in U251; type: cell-based, human; conditions: U251, compared with control group
Experimental: The human glioma cell lines (U87-MG and U251) were obtained from the Cell Bank of Type Culture Collection of the Chinese Academy of Science (Shanghai, China). […] A3656), valproic acid (VPA, CAS No. 99-66-1), and trichostatin A (TSA, CAS No. 58880-19-6) were purchased from Sigma-Aldrich Corporation (St. Louis, MO, USA). DAC and TSA were dissolved in DMSO to a concentration of 10 mM. Aliquots were stored at -80°C and diluted with media before being used. Drug treatments were divided into seven groups: (1) DAC group: cells were cultured in medium on the presence of 1 μM DAC for 120 h; (2) VPA group: cells were grown in medium containing 1 mM VPA for 120 h; (3) TSA group: cells were cultured in medium supplemented with 1 μM TSA for 24 h; (4) D + V group: cells were cultured with 1 μM DAC and 1 mM VPA for 120 h; (5) D + T group: cells were cultured with 1 μM DAC for 120 h, followed by 1 μM TSA for 24 h; (6) Control group: cells were cultured with 0.09% DMSO, which is the highest concentration of DMSO used in this study in consideration of the potential toxicity of DMSO to living cells. Human recombinant interleukin (IL) IL-2, IL-4, and human recombinant granulocyte/macrophage colony-stimulating factor (GM-CSF) were purchased from R&D Systems. Genomic DNA was isolated from cells using a DNA Isolation Kit (Vazyme, China). The methylation status of the MAGE-D4 promoter in cells was quantified by the PyroMark Q96 ID pyrosequencing platform (Qiagen), which was performed by Shanghai […] Biotech Co., Ltd. The methylation status of each site was analyzed automatically by the accompanying software Pyro Q-CpG (Qiagen). Two regions in the core promoter were detected, which contained 18 CpG sites. Primers used in pyrosequencing were as follows: region 1: [NT] (forward) and [NT] (reverse); region 2: [NT] (forward) and [NT] (reverse). Sequences of the MAGE-D4 promoter and pyrosequencing regions containing CpG sites are listed in Supplemental Materials.

MAGE-D4 promoter [3] = assay: Pyrosequencing of MAGE-D4 promoter in U87; type: cell-based, human; conditions: U87, compared with control group
Experimental: The human glioma cell lines (U87-MG and U251) were obtained from the Cell Bank of Type Culture Collection of the Chinese Academy of Science (Shanghai, China). […] A3656), valproic acid (VPA, CAS No. 99-66-1), and trichostatin A (TSA, CAS No. 58880-19-6) were purchased from Sigma-Aldrich Corporation (St. Louis, MO, USA). DAC and TSA were dissolved in DMSO to a concentration of 10 mM. Aliquots were stored at -80°C and diluted with media before being used. […] The methylation status of the MAGE-D4 promoter in cells was quantified by the PyroMark Q96 ID pyrosequencing platform (Qiagen), which was performed by Shanghai […] Biotech Co., Ltd. The methylation status of each site was analyzed automatically by the accompanying software Pyro Q-CpG (Qiagen). Two regions in the core promoter were detected, which contained 18 CpG sites. […]

U251 = assay: LDH cytotoxicity assay and HLA block, U251; type: cell-based, human; conditions: DAC + TSA-treated U251, E:T 50:1, 4 h
Experimental: (§1) The human glioma cell lines (U87-MG and U251) were obtained from the Cell Bank of Type Culture Collection of the Chinese Academy of Science (Shanghai, China). Decitabine (DAC, CAS No. A3656), valproic acid (VPA, CAS No. 99-66-1), and trichostatin A (TSA, CAS No. 58880-19-6) were purchased from Sigma-Aldrich Corporation (St. Louis, MO, USA). DAC and TSA were dissolved in DMSO to a concentration of 10 mM. Aliquots were stored at −80°C and diluted with media before being used. Drug treatments were divided into seven groups: (1) DAC group: cells were cultured in medium on the presence of 1 μM DAC for 120 h; (2) VPA group: cells were grown in medium containing 1 mM VPA for 120 h; (3) TSA group: cells were cultured in medium supplemented with 1 μM TSA for 24 h; (4) D + V group: cells were cultured with 1 μM DAC and 1 mM VPA for 120 h; (5) D + T group: cells were cultured with 1 μM DAC for 120 h, followed by 1 μM TSA for 24 h; (6) Control group: cells were cultured with 0.09% DMSO, which is the highest concentration of DMSO used in this study in consideration of the potential toxicity of DMSO to living cells. Human recombinant interleukin (IL) IL-2, IL-4, and human recombinant granulocyte/macrophage colony-stimulating factor (GM-CSF) were purchased from R&D Systems.
The cytotoxic activity of MAGE-D4 peptide-specific CTLs to glioma cells was determined according to the instructions of the manufacturers by our published method ([31]). […] Four hours later, suspended cells were collected for CD107a flow cytometry, meanwhile, the supernatant was collected and analyzed with granzyme A and perforin ELISA kit (Cloud-Clone Corporation, Wuhan, China) at 450 nm, and the LDH kit (Promega, USA) at 490 nm. The percentage of specific lysis was calculated using the following formula: [(experimental release − spontaneous release)/(maximum release − spontaneous release)] × 100. […] Then, the cytotoxicity assay was measured and calculated as mentioned above.

HLA-A2 [4] = assay: HLA-A2 expression in U251; type: cell-based, human; conditions: DAC 1 μM 120 h, TSA 1 μM 24 h
Experimental: as §1, with “Decitabine (DAC, CAS No.” left out, “-80°C” for “−80°C”, “[…] The cells were then harvested, washed with PBS buffer three times,” for “Human recombinant interleukin (IL) IL-2, IL-4,”, “analyzed by a FACScan flow cytometer (BD Biosciences, Franklin Lakes, NJ, USA) using BD AccuriTM C6 Software (BD Biosciences).” for “human recombinant granulocyte/macrophage colony-stimulating factor (GM-CSF) were purchased from R&D Systems.”

Compound: ALQLDPETL [Peptide P5]
- stimulation index (SI), T-cell proliferation, CCK8 (autologous T cells): can induce T-cell proliferation
- IL-2 secreted by DC-stimulated T cells (IL-2): higher IL-2

Compound: VLCLPPRNV [Peptide P7]
- DC50 (time required for 50% dissociation of the HLA-A*0201/peptide complex) (peptide/HLA-A2 complex): <2 h

Compound: SVQSESYSV [Peptide P1]
- FI (fluorescence index, HLA-A*0201 binding affinity) (HLA-A2 [1]): 0.007

Compound: CCCC(CCC)C(=O)O [VPA, valproic acid]
- methylation level of MAGE-D4 promoter region 1 (MAGE-D4 promoter [2]): decreased significantly
- methylation level of MAGE-D4 promoter region 2 (MAGE-D4 promoter [2]): decreased significantly
- total methylation levels of regions 1 and 2 of MAGE-D4 core promoter (MAGE-D4 promoter [2]): decreased significantly
- methylation level of MAGE-D4 promoter region 1 (MAGE-D4 promoter [3]): decreased significantly

Compound: ILSNEPWEL [Peptide P4]
- DC50 (time required for 50% dissociation of the HLA-A*0201/peptide complex) (peptide/HLA-A2 complex): >2 h
- stimulation index (SI), T-cell proliferation, CCK8 (autologous T cells): can induce T-cell proliferation
- cytotoxicity of peptide-specific T cells (specific lysis, LDH) (U251): cytotoxicity on the DAC + TSA-treated U251 cells with statistical significance

Compound: TLTSFDIHI [Peptide P2]
- FI (fluorescence index, HLA-A*0201 binding affinity) (HLA-A2 [1]): 0.877

Compound: SLGPGLRIL [Peptide P3]
- FI (fluorescence index, HLA-A*0201 binding affinity) (HLA-A2 [1]): 0.887

Compound: Nc1ncn([C@H]2C[C@H](O)[C@@H](CO)O2)c(=O)n1 [DAC, Decitabine]
- HLA-A2 levels (HLA-A2 [4]): elevated HLA-A2 levels with statistical significance
- methylation level of MAGE-D4 promoter region 1 (MAGE-D4 promoter [2]): decreased significantly
- methylation level of MAGE-D4 promoter region 1 (MAGE-D4 promoter [3]): decreased significantly
